Assay results: patent publication US7786141B2 (Vertex Pharmaceuticals Incorporated, priority 2004, dated 2010)
pEC50: −log10 of the molar value. Read-outs that look alike come from different tables or passages of the source.

Key:
[1] = target: T1, M1 muscarinic receptor (Homo sapiens, UniProt P11229); assay: Functional mobilization of intracellular calcium (FLIPR) in M1-CHO cells; type: cell-based
T1 construct: expressed in transfected cells; host or cells: CHO (M1-CHO)
T1 sequence (P11229 1-460): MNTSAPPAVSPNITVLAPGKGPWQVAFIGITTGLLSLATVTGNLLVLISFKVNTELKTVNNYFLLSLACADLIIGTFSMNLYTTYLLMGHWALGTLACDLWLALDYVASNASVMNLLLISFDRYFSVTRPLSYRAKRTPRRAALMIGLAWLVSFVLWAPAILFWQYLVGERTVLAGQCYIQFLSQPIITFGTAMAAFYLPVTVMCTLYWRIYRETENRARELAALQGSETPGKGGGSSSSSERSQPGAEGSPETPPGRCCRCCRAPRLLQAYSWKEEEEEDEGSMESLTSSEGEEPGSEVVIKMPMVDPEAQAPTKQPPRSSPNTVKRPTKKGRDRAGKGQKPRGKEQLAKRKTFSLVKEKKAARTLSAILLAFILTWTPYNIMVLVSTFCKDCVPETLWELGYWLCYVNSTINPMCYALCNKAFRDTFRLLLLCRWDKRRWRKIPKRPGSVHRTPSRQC
How it was run: (§1)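 Two modes: direct compound addition for agonism, or 15 min compound pre-incubation (or co-application) before carbachol at EC80 for inhibition. Calcium signal from Fluo-3 AM or Calcium 3 dye in CHO cells, 1 mM probenecid, pH 7.4, read 60 sec at 488/540 nm; DMSO 0.5% final.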

[2] = target: T2, M4 muscarinic receptor (Homo sapiens, UniProt P08173); assay: Functional mobilization of intracellular calcium (FLIPR) in M4-CHO cells; type: cell-based
T2 construct: expressed in transfected cells; host or cells: CHO (M4-CHO)
T2 sequence (P08173 1-479): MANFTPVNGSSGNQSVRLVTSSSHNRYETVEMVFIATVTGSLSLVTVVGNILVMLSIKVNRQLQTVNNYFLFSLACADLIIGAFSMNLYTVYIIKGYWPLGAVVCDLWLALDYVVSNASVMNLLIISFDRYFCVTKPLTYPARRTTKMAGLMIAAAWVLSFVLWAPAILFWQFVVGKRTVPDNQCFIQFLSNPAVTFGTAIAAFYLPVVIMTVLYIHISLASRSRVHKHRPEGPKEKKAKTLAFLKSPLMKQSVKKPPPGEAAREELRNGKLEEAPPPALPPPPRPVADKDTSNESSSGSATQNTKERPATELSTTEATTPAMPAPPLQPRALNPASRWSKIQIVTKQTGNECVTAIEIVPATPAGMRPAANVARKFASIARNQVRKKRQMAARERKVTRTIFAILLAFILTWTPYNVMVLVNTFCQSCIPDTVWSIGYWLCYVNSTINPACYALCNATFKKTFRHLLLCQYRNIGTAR
How it was run: as §1

[3] = Table 4, 100% efficacy is the maximum response obtained with the Carbachol control
[4] = Table 4, modulating M1 receptor
[5] = Table 4, modulating M4 receptor
[6] = M1-CHO cells, calcium mobilization (FLIPR)
[7] = M1-CHO cells, calcium mobilization (FLIPR), read-out: M1 Efficacy
[8] = M4-CHO cells, calcium mobilization (FLIPR)
[9] = M4-CHO cells, calcium mobilization (FLIPR), read-out: M4 Efficacy
[10] = M1 receptor, calcium mobilization
[11] = M1 receptor, calcium mobilization, read-out: M1 Efficacy
[12] = M4 receptor, calcium mobilization
[13] = M4 receptor, calcium mobilization, read-out: M4 Efficacy
[14] = Table 4, M1 receptor, calcium mobilization (FLIPR)
[15] = Table 4, M4 receptor, calcium mobilization (FLIPR)

Row | SMILES | Emax [1, 3] | M1 Activity [1, 4] | Emax [2, 3] | M4 Activity [2, 5] | M1 Activity [1, 10] | Emax [1, 11] | M4 Activity [2, 12] | Emax [2, 13] | also measured
1 | CC(=O)N[C@H]1CCC2(CCN(CCC3=C(C)CCCC3(C)C)CC2)c2ccccc21 [compound 764] | 25 to 100% | xxx (activity was measured to be less than 2.0 μM) | < 25% | xxx (activity was measured to be less than 2.0 μM) | – | – | – | – | –
2 | CC(=O)N1CC2(CCN(C3CCN(C(C)C)CC3)CC2)c2cc(F)ccc21 [compound 441] | < 25% | x (activity was measured to be greater than 5.0 μM) | < 25% | x (activity was measured to be greater than 5.0 μM) | – | – | – | – | –
3 | CCOC(=O)N1CCC(N2CCC3(CC2)CN(C(C)=O)c2ccc(C4=CCCC4)cc23)CC1 [compound 426] | – | – | – | – | – | – | – | – | pEC50 [1, 6]: < 6.00; Emax [1, 7]: < 65%; pEC50 [2, 8]: < 6.00; Emax [2, 9]: < 65%
4 | COC(=O)N1CCC(N2CCC3(CC2)CN(C(=O)N(C)C)c2ccc(F)cc23)CC1 [compound 154] | – | – | – | – | xxx (activity was measured to be less than 0.1 μM) | 65 to 85% | xxx (activity was measured to be less than 0.1 μM) | > 85% | –
5 | Clc1ccc2c(c1)C1(CCN(CC3CCOCC3)CC1)CO2 [compound 415] | – | – | – | – | – | – | – | – | pEC50 [1, 6]: < 6.00; Emax [1, 7]: < 65%; pEC50 [2, 8]: < 6.00; Emax [2, 9]: < 65%
6 | CCOC(=O)N1CCC(N2CCC3(CC2)CN(C(=O)N(CC)CC)c2ccccc23)CC1 [compound 750] | 25 to 100% | xxx (activity was measured to be less than 2.0 μM) | 25 to 100% | xxx (activity was measured to be less than 2.0 μM) | – | – | – | – | –
7 | CC(=O)NC1CC2(CCN(C[C@H]3C[C@H]4CC[C@H]3C4)CC2)c2ccccc21 (some centres unmarked) [compound 161] | – | – | – | – | xx (activity was measured to be between 0.1 μM and 1.0 μM) | > 85% | x (activity was measured to be greater than 1.0 μM) | > 85% | –
8 | CCOC(=O)N1CCC(N2CCC3(CC2)CN(CC(C)=O)c2ccc(F)cc23)CC1 [compound 249] | – | – | – | – | x (activity was measured to be greater than 1.0 μM) | 65 to 85% | x (activity was measured to be greater than 1.0 μM) | 65 to 85% | –
9 | CCOC(=O)N1CCC(N2CCC3(CC2)CNc2ccc(Cl)cc23)CC1 [compound 19] | – | – | – | – | xxx (activity was measured to be less than 0.1 μM) | 65 to 85% | xx (activity was measured to be between 0.1 μM and 1.0 μM) | 65 to 85% | –
10 | CC(=O)N1CC2(CCN(C3CC[C@@H]4CC[C@@H]3C4)CC2)c2cc(F)ccc21 (some centres unmarked) [compound 251] | – | – | – | – | xx (activity was measured to be between 0.1 μM and 1.0 μM) | 65 to 85% | x (activity was measured to be greater than 1.0 μM) | 65 to 85% | –
11 | CC(=O)N1CC2(CCN(CC3CCN(C(=O)OC4CCC4)CC3)CC2)c2cc(F)ccc21 [compound 532] | < 25% | x (activity was measured to be greater than 5.0 μM) | < 25% | x (activity was measured to be greater than 5.0 μM) | – | – | – | – | –
12 | CC(=O)N1CCC(N2CCC3(CC2)CN(C(=O)N(C)C)c2ccc(F)cc23)CC1 [compound 880] | < 25% | – | < 25% | – | – | – | – | – | M1 Activity [1, 14]: x (activity was measured to be greater than 5.0 μM); M4 Activity [2, 15]: x (activity was measured to be greater than 5.0 μM)
13 | CC#CC(C)OC(=O)N1C2CCC1CC(N1CCC3(CC1)CN(C(C)=O)c1ccccc13)C2 (centres unmarked) [compound 515] | 25 to 100% | xxx (activity was measured to be less than 2.0 μM) | 25 to 100% | xxx (activity was measured to be less than 2.0 μM) | – | – | – | – | –
14 | CC1=C(CCN2CCC3(CC2)C[C@H](NC(=O)c2ccoc2)c2ccccc23)C(C)(C)CCC1 [compound 817] | < 25% | – | < 25% | – | – | – | – | – | M1 Activity [1, 14]: x (activity was measured to be greater than 5.0 μM); M4 Activity [2, 15]: x (activity was measured to be greater than 5.0 μM)
